From article PMC12436592 (Nature Communications, 2025)
Where “and” joins values, the source holds several entries; their conditions need not be identical. Equal entries are not always repeated.

Tests used:
mP2X7R = molecular target: T1, mP2X7R (Mus musculus, UniProt Q9Z1M0); test: TEVC dose response of ATP at mP2X7R in Xenopus oocytes; assay type: cell-based
T1 construct: expressed in transfected cells
T1 sequence (Q9Z1M0 1-595): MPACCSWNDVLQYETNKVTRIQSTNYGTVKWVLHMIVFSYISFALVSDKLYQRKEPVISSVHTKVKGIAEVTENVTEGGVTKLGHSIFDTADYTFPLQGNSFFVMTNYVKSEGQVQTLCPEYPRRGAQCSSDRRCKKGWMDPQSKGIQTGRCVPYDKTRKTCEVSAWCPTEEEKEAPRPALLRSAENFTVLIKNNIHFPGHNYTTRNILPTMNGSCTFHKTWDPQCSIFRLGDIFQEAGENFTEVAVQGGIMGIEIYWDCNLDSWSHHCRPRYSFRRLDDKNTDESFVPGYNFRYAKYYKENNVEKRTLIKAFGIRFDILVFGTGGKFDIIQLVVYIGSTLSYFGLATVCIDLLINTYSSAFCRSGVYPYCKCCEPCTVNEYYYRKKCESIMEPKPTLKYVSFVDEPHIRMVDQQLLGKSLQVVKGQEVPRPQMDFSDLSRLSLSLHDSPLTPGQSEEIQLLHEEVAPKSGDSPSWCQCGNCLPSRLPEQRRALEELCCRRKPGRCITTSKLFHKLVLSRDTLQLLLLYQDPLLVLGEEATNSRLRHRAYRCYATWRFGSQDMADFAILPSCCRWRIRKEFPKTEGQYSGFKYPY
Method: (§1) Defolliculated Xenopus laevis oocytes were purchased from Ecocyte Bioscience and kept in Modified Barth’s Solution (88 mM NaCl, 1 mM KCl, 0.82 mM MgSO4, 0.33 mM Ca(NO3)2·4H2O, 0.41 mM CaCl2·2H2O, 2.4 mM NaHCO3, 5 mM HEPES) supplemented with amikacin 250 mg/L and gentamycin 150 mg/L. Oocytes were then injected with 50 nL of either full-length wild-type hP2X7R (40 ng/μL), mP2X7R (20 ng/μL), or rP2X7R (20 ng/μL) mRNA made from linearized pcDNA 3.1x according to the protocol provided in the mMessage mMachine kit (Invitrogen). Injected oocytes were allowed to express for ~20 h before recording was performed.
(§2) Data acquisition was performed using an Oocyte Clamp OC-725C amplifier and pClamp 8.2 software. Buffers were applied using a gravity-fed RSC-200 Rapid Solution Changer, flowing at ~5 mL/min. All experiments use Sutter filamented glass 10 cm in length with an inner diameter of 0.69 mm and an outer diameter of 1.2 mm to impale oocytes and clamp the holding voltage at −60 mV. Experiments were recorded in buffer containing 100 mM NaCl, 2.5 mM KCl, 0.1 mM EDTA, 0.1 mM flufenamic acid, and 5 mM HEPES at pH 7.4.
(§3) This value is then averaged amongst each singular condition and reported as the mean ± SD.

rP2X7R [1] = molecular target: T2, rP2X7R (Rattus norvegicus, UniProt Q64663); test: TEVC dose response of ATP at rP2X7R in Xenopus oocytes; assay type: cell-based; design: expressed in transfected cells; host or cells: Xenopus laevis oocytes injected with mRNA made from pcDNA 3.1x
T2 sequence (Q64663 1-595): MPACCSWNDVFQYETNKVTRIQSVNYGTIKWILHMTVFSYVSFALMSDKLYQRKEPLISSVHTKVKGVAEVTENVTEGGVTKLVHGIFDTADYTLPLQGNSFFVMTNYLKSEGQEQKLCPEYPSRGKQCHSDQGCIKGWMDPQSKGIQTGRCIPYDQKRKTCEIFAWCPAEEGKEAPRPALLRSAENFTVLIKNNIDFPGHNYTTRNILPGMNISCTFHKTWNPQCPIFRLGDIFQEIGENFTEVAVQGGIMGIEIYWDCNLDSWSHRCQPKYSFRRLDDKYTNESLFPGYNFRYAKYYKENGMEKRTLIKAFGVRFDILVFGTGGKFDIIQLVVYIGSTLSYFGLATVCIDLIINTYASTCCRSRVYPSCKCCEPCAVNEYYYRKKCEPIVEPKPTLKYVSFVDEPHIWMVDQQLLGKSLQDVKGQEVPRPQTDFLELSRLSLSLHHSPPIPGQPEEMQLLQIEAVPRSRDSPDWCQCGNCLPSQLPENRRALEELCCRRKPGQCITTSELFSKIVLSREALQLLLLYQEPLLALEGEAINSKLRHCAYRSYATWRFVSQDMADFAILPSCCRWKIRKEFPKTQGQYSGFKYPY
Method: as §1, §2, §3

rP2X7R [2] = molecular target: rP2X7R; design: method as in PMID 39107314; details: BLI; read-out: equilibrium dissociation constant (KD), rP2X7R; cited from earlier work
hP2X7R [3] = molecular target: T3, hP2X7R (Homo sapiens, UniProt Q99572); test: TEVC dose response of ATP at hP2X7R in Xenopus oocytes; assay type: cell-based; design: expressed in transfected cells; host or cells: Xenopus laevis oocytes injected with mRNA made from pcDNA 3.1x
T3 sequence (Q99572 1-595): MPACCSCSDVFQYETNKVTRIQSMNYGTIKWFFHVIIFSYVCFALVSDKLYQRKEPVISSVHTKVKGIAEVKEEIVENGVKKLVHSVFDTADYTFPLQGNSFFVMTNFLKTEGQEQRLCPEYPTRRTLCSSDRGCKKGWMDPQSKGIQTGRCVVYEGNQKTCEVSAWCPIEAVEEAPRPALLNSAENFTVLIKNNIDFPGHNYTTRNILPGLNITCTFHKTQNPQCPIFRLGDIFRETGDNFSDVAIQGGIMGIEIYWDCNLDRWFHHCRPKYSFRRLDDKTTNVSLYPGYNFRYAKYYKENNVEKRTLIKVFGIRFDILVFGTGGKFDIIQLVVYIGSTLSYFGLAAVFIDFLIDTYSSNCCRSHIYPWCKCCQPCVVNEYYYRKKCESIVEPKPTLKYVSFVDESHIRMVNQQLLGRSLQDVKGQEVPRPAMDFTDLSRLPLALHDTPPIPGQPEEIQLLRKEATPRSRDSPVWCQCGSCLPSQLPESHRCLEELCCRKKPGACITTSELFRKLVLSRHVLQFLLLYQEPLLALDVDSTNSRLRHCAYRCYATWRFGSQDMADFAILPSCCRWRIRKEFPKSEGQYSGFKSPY
Method: as §1, §2, §3

hP2X7R [4] = molecular target: T3, hP2X7R; test: Bio-layer interferometry (BLI), ATP binding to biotinylated hP2X7R
Method: Briefly, BLI experiments were performed at 30 °C in 384-well tilted-bottom plates (Sartorius) with orbital shaking at 1000 r.p.m. on a ForteBio Octet RED384 instrument (ForteBio Data Acquisition software 11.0) using pre-equilibrated (0.22 μm filtered PBS at pH 7.4 and 0.5 mM DDM from Anatrace) SA biosensor tips (Sartorious) loaded with 50 μg/mL of biotinylated hP2X7R ligand or biocytin (Sigma-Aldrich) control for 1800 s[34],[35]. The loaded SA sensors were blocked with 100 μg/mL of biocytin for 150 s and then washed with running buffer for 60 s. […] After data collection, rate constants for association and dissociation were determined using ForteBio Data Analysis HT 11.0 evaluation software. To maximize signal between the large ligand and small analyte, the raw data were double reference subtracted[34],[35]. For each interaction pair, the association rate constant (ka) and the dissociation rate constant (kd) were calculated with an average of three independent assays with at least four different concentrations that were globally fit to a 1:1 Langmuir binding model. The equilibrium dissociation constant (KD) was calculated as the ratio of kd to ka. The KD, ka, and kd values are reported as the average ± the standard deviation of three replicate datasets for each analyte, with each dataset using at least four independent traces. The analyzed data were exported and plotted in GraphPad Prism 9.0.

[5] = design: method as in PMID 39139642; details: cited from earlier work
P2X7R = details: cited from earlier work
[6] = [ATP] 3000 μM, single experiments

## Nc1ncnc2c1ncn2[C@@H]1O[C@H](COP(=O)(O)OP(=O)(O)OP(=O)(O)O)[C@@H](O)[C@H]1O [ATP]
mP2X7R; [ATP] 1.2 μM
  Normalized response, mP2X7R: 0.02 and 0.01
mP2X7R; [ATP] 3.7 μM
  Normalized response, mP2X7R: 0.017 and 0.013 and 0.009
mP2X7R; [ATP] 37 μM
  Normalized response, mP2X7R: 0.27 and 0.22 and 0.15
mP2X7R; [ATP] 1000 μM
  Normalized response, mP2X7R: 1 and 0.88
mP2X7R; [6]
  Normalized response, mP2X7R: 1 and 0.9
mP2X7R; read-out: EC50 for ATP, mP2X7R, TEVC, absence of divalent cations, mean ± SD, triplicate
  EC50: 70 ± 17 µM
rP2X7R [1]; [ATP] 2 μM
  Normalized response, rP2X7R: 0
rP2X7R [1]; [ATP] 37 μM
  Normalized response, rP2X7R: 0.41 and 0.5375 and 0.6343
rP2X7R [1]; [ATP] 1000 μM
  Normalized response, rP2X7R: 0.98 and 0.9571 and 0.9954
rP2X7R [1]; [6]
  Normalized response, rP2X7R: 1 and 0.9691
rP2X7R [1]; read-out: EC50 for ATP, rP2X7R, TEVC, absence of divalent cations, mean ± SD, triplicate
  EC50: 34 ± 8.4 µM
rP2X7R [2]
  Kd: 0.54 ± 0.23 µM
hP2X7R [3]; [ATP] 37 μM
  Normalized response, hP2X7R: 0.2 and 0.1456
hP2X7R [3]; [ATP] 1000 μM
  Normalized response, hP2X7R: 1 and 1.01 and 0.9474
hP2X7R [3]; [6]
  Normalized response, hP2X7R: 1.044 and 1.035 and 1.029
hP2X7R [3]; read-out: EC50 for ATP, hP2X7R, TEVC, absence of divalent cations, mean ± SD, triplicate
  EC50: 89 ± 8.3 µM
hP2X7R [4]; BLI, 1:1 Langmuir model
  rate constant for association (ka): 7.4 ± 1.3 × 10^4 M^−1 s^−1
  rate constant for dissociation (kd): 4.8 ± 1.2 × 10^−2 s^−1
hP2X7R [4]; BLI, mean ± SD, triplicate, read-out: equilibrium dissociation constant (KD), hP2X7R
  Kd: 0.65 ± 0.12 µM
hP2X7R [4]; hP2X7R vs rP2X7R
  KD higher than at the rP2X7R: ~ 20%
  ka slower than for ATP binding to the rP2X7R: ~ 27%
  kd slower than for ATP binding to the rP2X7R: ~ 6%

## O=C(NCC12CC3CC(CC(C3)C1)C2)c1cc(CCCNCCCO)ccc1Cl [AZD9056]
[5]
  efficacy in phase II trials for rheumatoid arthritis: limited efficacy

## Clc1cccc(-c2nnnn2Cc2cccnc2)c1Cl [Compound A438079]
P2X7R
  inhibitory activity across human, mouse and rat orthologs: equal inhibitory activity across all three orthologs
